According to the supplement of paper PMC10307832:

What was measured:
Assay in all cases: relative viability (nuclei count vs DMSO), 5 days (fraction); higher = more cells survive
[1] = compound: COc1ncc(-c2ccc3nccc(-c4ccnnc4)c3c2)cc1NS(=O)(=O)c1ccc(F)cc1F [Omipalisib] + Cc1nc(Nc2ncc(C(=O)Nc3c(C)cccc3Cl)s2)cc(N2CCN(CCO)CC2)n1 [Dasatinib] (partner 0.075 µM)
In short: (§1)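 Lung cancer cell lines in 1536-well plates got either a single drug or a fixed anchor-drug dose together with five library-drug doses (not always all listed) in √10 steps, by pin tool, on the day after seeding. Nuclei were counted after 5 days, and relative viability is the treated-to-vehicle ratio of nuclei counts. Values are medians of duplicate plates.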

[2] = compound: COc1ncc(-c2ccc3nccc(-c4ccnnc4)c3c2)cc1NS(=O)(=O)c1ccc(F)cc1F [Omipalisib] + CS(=O)(=O)N1CCN(Cc2cc3nc(-c4cccc5[nH]ncc45)nc(N4CCOCC4)c3s2)CC1 [Pictilisib] (partner 1 µM)
In short: as §1

[3] = compound: COc1ncc(-c2ccc3nccc(-c4ccnnc4)c3c2)cc1NS(=O)(=O)c1ccc(F)cc1F [Omipalisib] + NC(=O)Nc1cc(-c2cccc(F)c2)sc1C(=O)N[C@H]1CCCNC1 [AZD7762] (partner 0.2 µM)
In short: as §1

[4] = compound: COc1ncc(-c2ccc3nccc(-c4ccnnc4)c3c2)cc1NS(=O)(=O)c1ccc(F)cc1F [Omipalisib] + O=C(CCCCCCC(=O)Nc1ccccc1)NO [Vorinostat] (partner 1 µM)
In short: as §1

[5] = compound: COc1ncc(-c2ccc3nccc(-c4ccnnc4)c3c2)cc1NS(=O)(=O)c1ccc(F)cc1F [Omipalisib] + Nc1ncn([C@H]2C[C@H](O)[C@@H](CO)O2)c(=O)n1 [Decitabine] (partner 2 µM)
In short: as §1

[6] = compound: COc1ncc(-c2ccc3nccc(-c4ccnnc4)c3c2)cc1NS(=O)(=O)c1ccc(F)cc1F [Omipalisib] + C[C@]1(O)C[C@@H](c2nc(-c3ccc4ccc(-c5ccccc5)nc4c3)c3c(N)nccn32)C1 [Linsitinib] (partner 1 µM)
In short: as §1

Row | Cell Line | relative viability ([1]; first compound 0.0003 µM) | relative viability ([1]; first compound 0.003 µM) | relative viability ([1]; first compound 0.03 µM) | relative viability ([2]; first compound 0.0003 µM) | relative viability ([2]; first compound 0.003 µM) | relative viability ([2]; first compound 0.03 µM) | relative viability ([3]; first compound 0.0003 µM) | relative viability ([3]; first compound 0.003 µM) | relative viability ([3]; first compound 0.03 µM) | relative viability ([4]; first compound 0.0003 µM) | relative viability ([4]; first compound 0.003 µM) | relative viability ([4]; first compound 0.03 µM) | relative viability ([5]; first compound 0.0003 µM) | relative viability ([5]; first compound 0.003 µM) | relative viability ([5]; first compound 0.03 µM) | relative viability ([6]; first compound 0.0003 µM) | relative viability ([6]; first compound 0.003 µM) | relative viability ([6]; first compound 0.03 µM)
1 | NCI-H2087 | 0.8 | 0.566 | 0.614 | 0.916 | 0.692 | 0.739 | 1.29 | 1.55 | 0.772 | 0.683 | 0.549 | 0.29 | 0.327 | 0.192 | 0.125 | 1.15 | 0.909 | 0.854
2 | EMC-BAC-2 | 0.261 | 0.231 | 0.21 | 0.514 | 0.465 | 0.432 | 0.989 | 0.719 | 0.515 | 0.382 | 0.317 | 0.298 | 0.664 | 0.663 | 0.654 | 0.797 | 0.693 | 0.438
3 | 201T | 0.582 | 0.413 | 0.323 | 0.706 | 0.668 | 0.554 | 0.592 | 0.516 | 0.459 | 1.01 | 0.855 | 0.453 | 0.816 | 0.809 | 0.53 | 1.03 | 0.916 | 0.769
4 | RERF-LC-KJ | 0.757 | 0.509 | 0.407 | 0.488 | 0.463 | 0.397 | 0.867 | 0.554 | 0.514 | 0.627 | 0.52 | 0.424 | 0.637 | 0.502 | 0.434 | 0.883 | 0.716 | 0.697
5 | NCI-H2405 | 0.213 | 0.204 | 0.166 | 0.433 | 0.389 | 0.355 | 0.725 | 0.484 | 0.312 | 1 | 0.667 | 0.418 | 0.701 | 0.482 | 0.308 | 0.931 | 0.68 | 0.387
6 | NCI-H1975 | 0.33 | 0.249 | 0.113 | 0.321 | 0.277 | 0.193 | 0.711 | 0.446 | 0.305 | 0.702 | 0.458 | 0.276 | 0.398 | 0.296 | 0.178 | 0.857 | 0.614 | 0.206
7 | NCI-H1755 | 0.445 | 0.271 | 0.236 | 0.426 | 0.353 | 0.344 | 0.471 | 0.382 | 0.328 | 0.747 | 0.738 | 0.517 | 0.714 | 0.555 | 0.485 | 1 | 0.942 | 0.516
